Experimental data: BindingDB's records for doi:10.1016/j.ejmech.2018.04.030 (Chungnam National University, 2018)

Assay: Inhibition of IL-5 in mouse Y16 cells assessed as reduction in cell proliferation after 48 hrs by WST-1 assay

`COc1ccc(COc2cccc3c2C(=O)/C(=C/c2ccccc2)C3)cc1` and `COc1ccc(COc2cccc3c2C(=O)/C(=C/c2ccc(O)cc2)C3)cc1` cannot be ordered by IC50: greater than 30 µM for the first, greater than 30 µM for the second.

`O=C1c2c(cccc2OCCc2ccccc2)CC1Cc1cccc(O)c1` (stereo unspecified) and `O=C1c2c(cccc2OCCc2ccccc2)CC1Cc1ccc(O)cc1` (stereo unspecified) are within 1.5-fold of each other in IC50: 28 µM for the first, 26 µM for the second.

`COc1ccc(/C=C2\Cc3cccc(OCc4ccc(OC)cc4)c3C2=O)cc1` and `COc1ccc(COc2cccc3c2C(=O)/C(=C/c2ccc(C)cc2)C3)cc1` cannot be ordered by IC50: greater than 30 µM for the first, greater than 30 µM for the second.

`COc1ccc(COc2cccc3c2C(=O)/C(=C/c2ccc(Cl)cc2)C3)cc1` and `O=C1/C(=C/c2ccc(O)cc2)Cc2cccc(OCc3ccc([N+](=O)[O-])cc3)c21` cannot be ordered by IC50: greater than 30 µM for the first, greater than 30 µM for the second.

`COCOc1ccc(/C=C2\Cc3cccc(OCC4CCCCC4)c3C2=O)cc1` and `COc1ccc(/C=C2\Cc3cccc(OCC4CCCCC4)c3C2=O)cc1` cannot be ordered by IC50: greater than 30 µM for the first, greater than 30 µM for the second.

First: O=C1/C(=C/c2ccc(O)cc2)Cc2cccc(OCC3CCCCC3)c21
Second: O=C1c2c(cccc2OCC2CCCCC2)CC1Cc1ccc(O)cc1 (stereo unspecified)
The IC50 of the first is higher: greater than 30 µM for the first, 4 µM for the second.

`O=C1/C(=C/c2ccc(O)cc2)Cc2cccc(O)c21` and `COc1ccc(/C=C2\Cc3cccc(O)c3C2=O)cc1` cannot be ordered by IC50: greater than 30 µM for the first, greater than 30 µM for the second.

`O=C1/C(=C/c2ccccc2)Cc2cccc(O)c21` and `O=C1c2c(O)cccc2CC1Cc1ccc(O)cc1` (stereo unspecified) cannot be ordered by IC50: greater than 30 µM for the first, greater than 30 µM for the second.

Going from `COc1ccc(CC2Cc3cccc(OCC4CCCCC4)c3C2=O)cc1` (stereo unspecified) to `COCOc1ccc(CC2Cc3cccc(OCC4CCCCC4)c3C2=O)cc1` (stereo unspecified), the IC50 falls from greater than 30 µM to 17 µM. The second is the more potent here.

`O=C1c2c(cccc2OCC2CCCCC2)CC1Cc1ccc(Cl)cc1` (stereo unspecified) and `Cc1ccc(CC2Cc3cccc(OCC4CCCCC4)c3C2=O)cc1` (stereo unspecified) are within 1.5-fold of each other in IC50: 20.5 µM for the first, 24.5 µM for the second.

First: O=C1c2c(cccc2OCC2CCCCC2)CC1Cc1cccc(O)c1 (stereo unspecified)
Second: O=C1c2c(cccc2OCC2CCCCC2)CC1Cc1ccccc1O (stereo unspecified)
The IC50 of the first is lower: 6 µM for the first, greater than 30 µM for the second.

`O=C1c2c(cccc2OCCC2CCCCC2)CC1Cc1ccc(O)cc1` (stereo unspecified) and `O=C1c2c(cccc2OCc2ccccc2)CC1Cc1ccc(O)cc1` (stereo unspecified) are within 1.5-fold of each other in IC50: 18 µM for the first, 21 µM for the second.

Going from `O=C1c2c(cccc2OCCc2ccccc2)CC1Cc1ccccc1O` (stereo unspecified) to `O=c1c(Cc2ccc(O)cc2)coc2cccc(OCC3CCCCC3)c12`, the IC50 falls from greater than 30 µM to 5 µM. The second is the more potent here.
